How the values were obtained:
Type in all cases: biochemical
BTK-WT = target: T1, BTK-WT (Homo sapiens, UniProt Q06187); experiment: Btk in vitro inhibitory activity (one of Method A TR-FRET, Method B electrophoretic mobility shift, Method C radiometric filter binding); conditions: E compounds, Table 17; read-out: IC50 BTK-WT
T1 construct: purified from insect cells as a full-length construct containing an N-terminal 6X-His tag; His6 (N); made in house; host or cells: insect cells (baculovirus Sf21 in Method B)
T1 sequence (Q06187 whole entry): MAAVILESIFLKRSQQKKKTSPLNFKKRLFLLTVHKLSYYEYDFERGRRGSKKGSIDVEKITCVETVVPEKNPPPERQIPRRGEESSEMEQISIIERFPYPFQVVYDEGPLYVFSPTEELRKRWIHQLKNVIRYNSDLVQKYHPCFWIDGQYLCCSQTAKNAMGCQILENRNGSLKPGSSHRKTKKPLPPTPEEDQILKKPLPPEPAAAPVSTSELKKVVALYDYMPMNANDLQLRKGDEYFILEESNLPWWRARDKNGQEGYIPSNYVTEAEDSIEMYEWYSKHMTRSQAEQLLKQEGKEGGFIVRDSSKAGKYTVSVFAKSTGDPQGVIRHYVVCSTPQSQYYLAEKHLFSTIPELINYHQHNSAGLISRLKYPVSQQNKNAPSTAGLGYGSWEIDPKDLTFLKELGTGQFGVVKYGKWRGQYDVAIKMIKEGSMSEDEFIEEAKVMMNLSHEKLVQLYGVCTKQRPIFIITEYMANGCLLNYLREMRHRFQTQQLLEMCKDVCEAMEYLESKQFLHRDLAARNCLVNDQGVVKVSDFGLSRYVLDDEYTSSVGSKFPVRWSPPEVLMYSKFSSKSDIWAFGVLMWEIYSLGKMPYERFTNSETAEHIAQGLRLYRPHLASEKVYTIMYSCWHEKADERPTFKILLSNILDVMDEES

ITK = target: T2, ITK (Homo sapiens, UniProt Q08881); experiment: Inhibition of a panel of kinases, in vitro HotSpot kinase assay: ITK; conditions: E compounds, Table 17
T2 sequence (Q08881 1-620): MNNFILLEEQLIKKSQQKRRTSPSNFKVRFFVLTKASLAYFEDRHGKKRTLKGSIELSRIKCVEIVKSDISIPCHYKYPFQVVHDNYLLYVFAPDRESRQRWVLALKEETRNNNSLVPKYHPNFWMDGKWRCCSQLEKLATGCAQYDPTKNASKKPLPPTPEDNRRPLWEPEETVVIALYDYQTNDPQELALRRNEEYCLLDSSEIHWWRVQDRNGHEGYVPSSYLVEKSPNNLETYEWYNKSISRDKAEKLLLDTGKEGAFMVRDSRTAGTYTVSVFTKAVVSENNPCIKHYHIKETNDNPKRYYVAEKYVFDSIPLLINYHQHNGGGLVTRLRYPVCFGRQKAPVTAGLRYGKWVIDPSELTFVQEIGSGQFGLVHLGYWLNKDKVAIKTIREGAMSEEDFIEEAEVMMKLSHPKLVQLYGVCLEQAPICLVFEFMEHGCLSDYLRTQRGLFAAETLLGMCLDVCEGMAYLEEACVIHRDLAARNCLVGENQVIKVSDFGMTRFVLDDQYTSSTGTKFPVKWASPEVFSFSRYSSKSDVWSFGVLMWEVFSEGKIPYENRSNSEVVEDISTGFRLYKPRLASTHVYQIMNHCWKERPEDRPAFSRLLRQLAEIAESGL
Method: (§1) The degree of inhibition of a panel of kinases is determined using the in vitro HotSpot kinase assay (purified enzymes, ^33P-ATP, an appropriate substrate and 1 μM ATP).

TEC = target: T3, TEC (Homo sapiens, UniProt P42680); experiment: Inhibition of a panel of kinases, in vitro HotSpot kinase assay: TEC; conditions: E compounds, Table 17
T3 sequence (P42680 1-631): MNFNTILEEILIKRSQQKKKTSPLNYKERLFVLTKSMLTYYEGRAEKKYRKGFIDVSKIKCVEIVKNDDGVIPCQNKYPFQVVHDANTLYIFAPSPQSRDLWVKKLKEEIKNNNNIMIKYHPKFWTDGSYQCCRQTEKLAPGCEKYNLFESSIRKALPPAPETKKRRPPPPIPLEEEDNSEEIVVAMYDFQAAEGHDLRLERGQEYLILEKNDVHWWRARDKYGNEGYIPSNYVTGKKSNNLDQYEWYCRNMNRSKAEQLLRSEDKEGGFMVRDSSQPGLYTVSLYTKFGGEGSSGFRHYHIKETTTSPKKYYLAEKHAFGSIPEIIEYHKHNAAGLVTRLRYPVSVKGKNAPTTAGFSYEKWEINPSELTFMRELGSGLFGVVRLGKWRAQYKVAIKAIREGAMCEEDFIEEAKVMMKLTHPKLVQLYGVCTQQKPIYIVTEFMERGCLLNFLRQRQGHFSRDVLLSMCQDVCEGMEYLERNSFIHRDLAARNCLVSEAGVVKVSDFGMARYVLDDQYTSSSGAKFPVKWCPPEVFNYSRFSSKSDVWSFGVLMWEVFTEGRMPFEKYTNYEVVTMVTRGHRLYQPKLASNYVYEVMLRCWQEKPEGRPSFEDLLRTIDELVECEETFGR
Method: as §1

IC50 (BTK-WT) [nM]	IC50 (ITK) [nM]	IC50 (TEC) [nM]	Compound
≤ 10	10 to 100	≤ 10	C=CC(=O)N1CCC[C@@H](Nc2nnc(C(N)=O)c(Nc3cccc(-c4ncco4)c3)n2)C1 [Example E-65, (R)-3-(1-acryloylpiperidin-3-ylamino)-5-(3-(oxazol-2-yl)phenylamino)-1,2,4-triazine-6-carboxamide]
≤ 10	≤ 10	≤ 10	C=CC(=O)N1CCC[C@@H](Nc2nnc(C(N)=O)c(Nc3ccc4c(cnn4CC)c3)n2)C1 [Example E-66, (R)-3-(1-acryloylpiperidin-3-ylamino)-5-(1-ethyl-1H-indazol-5-ylamino)-1,2,4-triazine-6-carboxamide]
≤ 10	10 to 100	≤ 10	C=CC(=O)N1CCC[C@@H](Nc2nnc(C(N)=O)c(Nc3ccc(-n4cncn4)cc3)n2)C1 [Example E-69, (R)-5-(4-(1H-1,2,4-triazol-1-yl)phenylamino)-3-(1-acryloylpiperidin-3-ylamino)-1,2,4-triazine-6-carboxamide]
≤ 10	≤ 10	≤ 10	C=CC(=O)N1CCC[C@@H](Nc2nnc(C(N)=O)c(Nc3cnn(C)c3)n2)C1 [Example E-73, (R)-3-(1-acryloylpiperidin-3-ylamino)-5-(1-methyl-1H-pyrazol-4-ylamino)-1,2,4-triazine-6-carboxamide]
≤ 10	10 to 100	≤ 10	C=CC(=O)N1CCC[C@@H](Nc2nnc(C(N)=O)c(Nc3ccc(Cl)cc3)n2)C1 [Example E-74, (R)-3-(1-acryloylpiperidin-3-ylamino)-5-(4-chlorophenylamino)-1,2,4-triazine-6-carboxamide]
≤ 10	10 to 100	≤ 10	C=CC(=O)N1CCC[C@@H](Nc2nnc(C(N)=O)c(Nc3cccc(Cl)c3)n2)C1 [Example E-75, (R)-3-(1-acryloylpiperidin-3-ylamino)-5-(3-chlorophenylamino)-1,2,4-triazine-6-carboxamide]
≤ 10	10 to 100	≤ 10	C=CC(=O)N1CCC[C@@H](Nc2nnc(C(N)=O)c(Nc3cc(F)cc(Cl)c3)n2)C1 [Example E-76, (R)-3-(1-acryloylpiperidin-3-ylamino)-5-(3-chloro-5-fluorophenylamino)-1,2,4-triazine-6-carboxamide]
≤ 10	10 to 100	≤ 10	C=CC(=O)N1CCC[C@@H](Nc2nnc(C(N)=O)c(Nc3cccc(C#N)c3)n2)C1 [Example E-77, (R)-3-(1-acryloylpiperidin-3-ylamino)-5-(3-cyanophenylamino)-1,2,4-triazine-6-carboxamide]
≤ 10	10 to 100	≤ 10	C=CC(=O)N1CCC[C@@H](Nc2nnc(C(N)=O)c(Nc3ccc(S(F)(F)(F)(F)F)cc3)n2)C1 [Example E-78, (R)-3-(1-acryloylpiperidin-3-ylamino)-5-(4-(penta-fluorothio)phenyl-amino)-1,2,4-triazine-6-carboxamide]
≤ 10	10 to 100	≤ 10	C=CC(=O)N1CCC[C@@H](Nc2nnc(C(N)=O)c(Nc3ccc(C#N)cc3)n2)C1 [Example E-79, (R)-3-(1-acryloylpiperidin-3-ylamino)-5-(4-cyanophenylamino)-1,2,4-triazine-6-carboxamide]
≤ 10	≤ 10	≤ 10	C=CC(=O)N1CCC[C@@H](Nc2nnc(C(N)=O)c(Nc3ccc(C4=NCCN4C)cc3)n2)C1 [Example E-80, (R)-3-(1-acryloylpiperidin-3-ylamino)-5-(4-(1-methyl-4,5-dihydro-1H-imidazol-2-yl)phenylamino)-1,2,4-triazine-6-carboxamide]
≤ 10	100 to 1000	≤ 10	C=CC(=O)N1CCC[C@@H](Nc2nnc(C(N)=O)c(Nc3cccc(C(=O)OCC)c3)n2)C1 [Example E-81, (R)-ethyl 3-(3-(1-acryloylpiperidin-3-ylamino)-6-carbamoyl-1,2,4-triazin-5-ylamino)benzoate]
≤ 10	10 to 100	≤ 10	C=CC(=O)N1CCC[C@@H](Nc2nnc(C(N)=O)c(Nc3cccc(C(=O)NC)c3)n2)C1 [Example E-82, (R)-3-(1-acryloylpiperidin-3-ylamino)-5-(3-(methylcarbamoyl)phenylamino)-1,2,4-triazine-6-carboxamide]
≤ 10	10 to 100	≤ 10	C=CC(=O)N1CCC[C@@H](Nc2nnc(C(N)=O)c(Nc3cccc(C(=O)N(C)C)c3)n2)C1 [Example E-83, (R)-3-(1-acryloylpiperidin-3-ylamino)-5-(3-(dimethylcarbamoyl)phenylamino)-1,2,4-triazine-6-carboxamide]
≤ 10	10 to 100	≤ 10	C=CC(=O)N1CCC[C@@H](Nc2nnc(C(N)=O)c(Nc3cccc(C(=O)NC4CC4)c3)n2)C1 [Example E-84, (R)-3-(1-acryloylpiperidin-3-ylamino)-5-(3-(cyclopropyl-carbamoyl)phenyl-amino)-1,2,4-triazine-6-carboxamide]
≤ 10	10 to 100	≤ 10	C=CC(=O)N1CCC[C@@H](Nc2nnc(C(N)=O)c(Nc3cccc(C(=O)N4CCOCC4)c3)n2)C1 [Example E-85, (R)-3-(1-acryloylpiperidin-3-ylamino)-5-(3-(morpholine-4-carbonyl)phenylamino)-1,2,4-triazine-6-carboxamide]
≤ 10	10 to 100	≤ 10	C=CC(=O)N1CCC[C@@H](Nc2nnc(C(N)=O)c(Nc3cccc(C(=O)NCc4ccccc4)c3)n2)C1 [Example E-86, (R)-3-(1-acryloylpiperidin-3-ylamino)-5-(3-(benzyl-carbamoyl)phenyl-amino)-1,2,4-triazine-6-carboxamide]
≤ 10	100 to 1000	≤ 10	C=CC(=O)N1CCC[C@@H](Nc2nnc(C(N)=O)c(Nc3cccc(C(=O)N4CCCCC4)c3)n2)C1 [Example E-87, (R)-3-(1-acryloylpiperidin-3-ylamino)-5-(3-(piperidine-1-carbonyl)phenylamino)-1,2,4-triazine-6-carboxamide]
≤ 10	100 to 1000	10 to 100	C=CC(=O)NC[C@H]1CCCCN1c1nnc(C(N)=O)c(Nc2ccc(C(C)C)cc2)n1 [Example E-88, (R)-3-(2-(acrylamido-methyl)piperidin-1-yl)-5-(4-isopropyl-phenylamino)-1,2,4-triazine-6-carboxamide]
100 to 1000	1000 to 10000	100 to 1000	C=CC(=O)NC[C@@H]1CCCCN1c1nnc(C(N)=O)c(Nc2ccc(C(C)C)cc2)n1 [Example E-89, (S)-3-(2-(acrylamido-methyl)piperidin-1-yl)-5-(4-isopropyl-phenylamino)-1,2,4-triazine-6-carboxamide]
≤ 10	10 to 100	≤ 10	C=CC(=O)NC[C@H]1CCCN1c1nnc(C(N)=O)c(Nc2ccc(C(C)C)cc2)n1 [Example E-90, (R)-3-(2-(acrylamido-methyl)pyrrolidin-1-yl)-5-(4-isopropylphenyl-amino)-1,2,4-triazine-6-carboxamide]
10 to 100	1000 to 10000	100 to 1000	C=CC(=O)NC[C@@H]1CCCN1c1nnc(C(N)=O)c(Nc2ccc(C(C)C)cc2)n1 [Example E-91, (S)-3-(2-(acrylamido-methyl)pyrrolidin-1-yl)-5-(4-isopropylphenyl-amino)-1,2,4-triazine-6-carboxamide]
≤ 10	≤ 10	≤ 10	C=CC(=O)N1CC[C@@H](N(C)c2cnc(C(N)=O)c(Nc3ccc(N4CCN(C)CC4)cc3)n2)C1 [Example E-111, (R)-5-((1-acryloylpyrrolidin-3-yl)(methyl)amino)-3-(4-(4-methylpiperazin-1-yl)phenylamino)pyrazine-2-carboxamide]
